Reference: patent publication US8735444B2, “Fluorinated rhodamines as photostable fluorescent dyes for labelling and imaging techniques” (Max-Planck-Gesellschaft zur Foerderung der Wissenschaften …, priority 2009, dated 2014)
Like-named read-outs stand apart in the source and are kept apart here. Marks after values point to notes of the source that are not given here.

How the values were obtained:
[1] = Spectral properties of the fluorinated rhodamines (absorption, emission, quantum yield, lifetime); format: physicochemical
Source text: Extinction coefficients (of the long wavelength maximum) which are lower than ca. 8×10^4 M^−1 cm^−1 indicate the presence of the closed non-fluorescent form.

[2] = tested on: living mammalian cells (PtK2); experiment: Membrane-permeation experiments in living cells, epifluorescence microscope; format: cell-based; conditions: for Structures stained in living cells: 15 minutes
Method: FIG. 9. Membrane-permeation experiments of the presented dyes. Living mammalian cells (PtK2) were incubated for 15 minutes with a 50 μg dye/ml solution. The subcellular localization of the dye was imaged in an epifluorescence microscope. A: 46-H—CH2 CF3—H—H (16); B: 42-COOH (15); C: 23; D: 37-Me-Me-H (27); E: 42-H (14)-methylester; F: 33-H—H (18).
The most important prerequisite for fluorophores used in these labeling strategies is that sufficient amounts of it need to pass cellular membrane(s) to reach the target protein. In order to asses the permeability of the cell membrane to the fluorescent dyes described in the presented invention, living mammalian cells (PtK2) previously grown overnight on cover slips, were first subjected to either 500 μg dye/ml or 50 μg dye/ml in growth medium for 15 minutes. (The amount of dye used for labeling of SNAP-fusion proteins is below 5 μg dye/ml.) Then, the cells were washed with growth medium (without dye) for 15 minutes, and imaged using an epifluorescence microscope.

[3] = parameters: ε × 10^−4: unit not given beside the values; conditions: cited from earlier work
[4] = a + b (aqueous buffer at pH 7 + methanol)
[5] = adding methanol to an aqueous buffer
[6] = value for the closed form, methanol
[7] = solvent not stated, spectra pH-dependent at pH < 5

Row | ABSORPTION λMAX ([1]; aqueous buffer at pH 7) | EMISSION λMAX ([1]; aqueous buffer at pH 7) | EMISSION λMAX ([1]; methanol) | ΦFL ([1]; aqueous buffer at pH 7) | τFL ([1]; aqueous buffer at pH 7) | ABSORPTION ε ([1]; methanol) | ABSORPTION λMAX ([1]; methanol) | Compound | Structures stained in living cells ([2]; 500 μg dye/ml) | also measured
1 | 525 nm | 554 nm | 589 nm | – | – | – | – | 2,7-Difluoro-5′(6′)-methoxycarbonyl-N,N,N′,N′-tetramethyl-rhodamine [Compound 28] | Red cytoplasmatic and mitochondrial | ABSORPTION λMAX [1, 4]: 558 nm; bathochromic shift in absorption maximum [1, 5]: 23 nm; bathochromic shift in emission maximum [1, 5]: 35 nm; ABSORPTION ε ([1]; aqueous buffer at pH 7): 31000 M⁻¹ cm⁻¹
2 | – | – | – | – | – | – | – | 5(6)-carboxyfluorescein [Compound 7] | – | ε × 10^−4 ([3]; H2O, pH = 9): 7.8^4*; λem ([3]; H2O, pH = 9): 517^4* nm; λmax ([3]; H2O, pH = 9): 492^4* nm
3 | – | – | – | – | – | – | – | 5(6)-carboxyrhodamine 110 [Compound 2] | – | ε × 10^−4 ([3]; MeOH): 7.8; λem ([3]; MeOH): 532 nm; λmax ([3]; MeOH): 504 nm
4 | 490 nm | 514 nm | 517 nm | 0.97 | 4.1 ns | 32000 M⁻¹ cm⁻¹ | 502 nm | 5′ (6′)-Carboxy-2,7-difluoro-4,5-disulforhodamine [Compound 13] | Nearly no stain visible. | Structures stained in living cells ([2]; 50 μg dye/ml): Dim cytoplasmatic stain with dots
5 | – | – | – | – | – | – | – | 5′ (6′)-Carboxy-2,7-difluoro-N,N′-dimethyl-N,N-bis(2,2,2-trifluoroethyl)rhodamine [Compound 26] | Cellular stain visible; bright | ABSORPTION λMAX [1, 4]: 523 nm; ABSORPTION λMAX [1, 6]: 291 nm
6 | 496 nm | 522 nm | 520 nm | 0.89 | 3.8 ns | – | 498 nm | 5′ (6′)-carboxy-2,7-difluoro-N,N′-bis(2,2,2-trifluoroethyl)-rhodamine [Compound 19] | – | ABSORPTION ε ([1]; aqueous buffer at pH 7): 53000 M⁻¹ cm⁻¹; Structures stained in living cells ([2]; 50 μg dye/ml): Dim cellular stain with dots
7 | 515^a, 515^b nm | 543 nm | 538 nm | 0.86 | 4.1 ns | 56000 M⁻¹ cm⁻¹ | 515^a, 515^b nm | 5′(6′)-Carboxy-2,7-difluoro-N,N′-dimethylrhodamine [Compound 24] | Cellular stain visible; bright | –
8 | 496 nm | 522 nm | 523 nm | 0.92 | 4.0 ns | 50000 M⁻¹ cm⁻¹ | 498 nm | 5′(6′)-Carboxy-2,7-difluororhodamine [Compound 11] | Dye exclusion! No dye within cell | –
9 | 509 nm | 533 nm | 541 nm | 0.86 | 3.3 ns | 42000 M⁻¹ cm⁻¹ | 517 nm | 5′,(6′)-Carboxy-2,7-difluoro-N,N″-bis(2,2,2-trifluoroethyl)-4,5-disulforhodamine [Compound 21] | Cytoplasmatic and mitochondrial | Structures stained in living cells ([2]; 50 μg dye/ml): Dim cytoplasmatic stain with dots
10 | 501 nm | 525 nm | 524 nm | 0.95 | 4.1 ns | – | 500 nm | O=C(O)c1ccc2c(c1)C1(OC2=O)c2ccc(NCC(F)(F)F)cc2Oc2cc(NCC(F)(F)F)ccc21 [15 (42-COOH), 5′-Carboxy-N,N′-bis(2,2,2-trifluoroethyl)rhodamine] | – | ABSORPTION ε ([1]; aqueous buffer at pH 7): 85000 M⁻¹ cm⁻¹; Structures stained in living cells ([2]; 50 μg dye/ml): Dim cytoplasmatic stain with dots; Structures stained in living cells ([2]; 500 μg dye/ml, listed as 42-COOH (15)): Bright cytoplasmatic stain visible.
11 | 501 nm | 523 nm | 522 nm | 0.93 | – | – | 497 nm | O=C(O)c1ccc2c(c1)C1(OC2=O)c2ccc(NCC(F)(F)F)cc2Oc2cc(NCC(F)(F)F)ccc21 [15 (43-COOH), 6′-carboxy-N,N′-bis(2,2,2-trifluoroethyl)rhodamine] | – | ABSORPTION ε ([1]; aqueous buffer at pH 7): 88000 M⁻¹ cm⁻¹; Structures stained in living cells ([2]; 500 μg dye/ml, listed as 43-COOH (15)): Nearly no stain visible.
12 | – | – | – | – | – | – | – | Cl.N=c1ccc2c(-c3ccccc3C(=O)O)c3ccc(N)cc3oc-2c1 [Compound 1, rhodamine 110] | – | Φfl ([3]; basic EtOH): 0.92; λem ([3]; basic EtOH): 524 nm; ε × 10^−4 ([3]; water, pH = 7): 8.3; λem ([3]; water, pH = 7): 520** nm; λmax ([3]; water, pH = 7): 496 nm
13 | – | – | – | – | – | – | – | Nc1cc2c(cc1Cl)C1(OC(=O)c3ccccc31)c1cc(Cl)c(N)cc1O2 [Compound 5] | – | shift of the absorption and emission curves to the red ([3]; compared with compounds 1, 3 and 4): ca. 10 nm; ε × 10^−4 ([3]; water, pH = 7): 7.1; λem ([3]; water, pH = 7): 525 nm; λmax ([3]; water, pH = 7): 502 nm
14 | – | – | – | – | – | – | – | O=C1OC2(c3cc(F)c(O)cc3Oc3cc(O)c(F)cc32)c2ccccc21 [Compound 8] | – | τ ([3]; 20° C.): ^7*τ = 4.1 ns (20° C.).; ε × 10^−4 ([3]; H2O, pH = 9): 8.5^4*; λem ([3]; H2O, pH = 9): 518^4* nm; λmax ([3]; H2O, pH = 9): 492^4* nm
15 | – | – | – | – | – | – | – | O=C(O)CSc1c(F)c(F)c(C(=O)O)c(-c2c3cc(F)c(=O)cc-3oc3cc(O)c(F)cc23)c1F [Compound 9] | – | bathochromic shift ([3]; compared with compounds 7 and 8): ca. 10 nm; ε × 10^−4 [3, 7]: 8.6; λem [3, 7]: 526 nm; λmax [3, 7]: 506 nm
16 | 494 nm | 520 nm | 522 nm | 0.87 | 3.9 ns | 41000 M⁻¹ cm⁻¹ | 498 nm | Nc1cc2c(cc1F)C1(OC(=O)c3ccccc31)c1cc(F)c(N)cc1O2 [Compound 10, 2,7-Difluororhodamine] | High background staining visible. | –
17 | 494 nm | 521 nm | 519 nm | 1.00 | 3.8 ns | 41000 M⁻¹ cm⁻¹ | 500 nm | O=C1OC2(c3cc(F)c(NCC(F)(F)F)cc3Oc3cc(NCC(F)(F)F)c(F)cc32)c2ccccc21 [Compound 18, 2,7-Difluoro-N,N′-bis(2,2,2-trifluoroethyl)rhodamine] | – | ABSORPTION λMAX [1, 6]: (292)^2b nm; Structures stained in living cells ([2]; 50 μg dye/ml): Dim cytoplasmatic stain with bright
18 | 513 nm | 539 nm | 537 nm | 0.87 | 4.0 ns | 56000 M⁻¹ cm⁻¹ | 511 nm | CNc1cc2c(cc1F)C1(OC(=O)c3ccccc31)c1cc(F)c(NC)cc1O2 [Compound 23, 2,7-Difluoro-N,N′-dimethylrhodamine] | Mitochondrial stain visible. Bright | Structures stained in living cells ([2]; 50 μg dye/ml): Dim cytoplasmatic stain with dots
19 | – | – | – | – | – | – | – | CN(CC(F)(F)F)c1cc2c(cc1F)C1(OC(=O)c3ccccc31)c1cc(F)c(N(C)CC(F)(F)F)cc1O2 [Compound 25, 2,7-Difluoro-N,N-dimethyl-N,N-bis(2,2,2-trifluoromethyl)-rhodamine] | Only dim stain visible. | fluorescence efficiency of the open acidic form ([1]; acidic solutions): relatively low fluorescence efficiency; ΦFL ([1]; measured at pH 1): (0.20)^1; τFL ([1]; measured at pH 1): (1.2)^1 ns; ABSORPTION ε ([1]; measured at pH 1, aqueous): (3.2)^1a (M^−1 cm^−1) × 10^−4; ABSORPTION λMAX ([1]; measured at pH 1, aqueous): 528 nm; EMISSION λMAX ([1]; measured at pH 1, aqueous): (557)^1a nm; colour of solutions ([1]; methanol, water and neutral buffers): colorless solutions; ABSORPTION λMAX [1, 6]: 300 nm
20 | 499^a nm | 522^ nm | – | 0.88 | 3.9 ns | – | – | N,N-Bis(2,2,2-trifluoroethyl)rhodamine [Compound 14] | Nearly no stain visible. | ABSORPTION ε ([1]; aqueous buffer at pH 7): 81000 M⁻¹ cm⁻¹

Row | Compound | ABSORPTION λMAX ([1]; aqueous buffer at pH 7) | EMISSION λMAX ([1]; aqueous buffer at pH 7) | EMISSION λMAX ([1]; methanol) | ΦFL ([1]; aqueous buffer at pH 7) | τFL ([1]; aqueous buffer at pH 7) | ABSORPTION ε ([1]; methanol) | ABSORPTION λMAX ([1]; methanol) | Structures stained in living cells ([2]; 500 μg dye/ml) | also measured
21 | CN(C)c1cc2c(cc1F)C1(OC(=O)c3ccccc31)c1cc(F)c(N(C)C)cc1O2 [Compound 27, 2,7-Difluoro-N,N,N′,N′-tetramethylrhodamine] | 554 nm | 586 nm | 576 nm | 0.02 | 3.3 ns | – | 546 nm | Red cytoplasmatic and mitochondrial | fluorescence in aqueous buffer ([1]; aqueous buffer): nearly non-fluorescent; ABSORPTION ε ([1]; aqueous buffer at pH 7): 50000 M⁻¹ cm⁻¹; fluorescence signal inside the living cells ([2]; compared with aqueous buffer, Example 12, FIG. 9D): considerably stronger
